The source of these data is US9511091B2, “Rare earth metal compounds, methods of making, and methods of using the same” (Spectrum Pharmaceuticals, Inc., priority 2002, dated 2016).

Series [1] is described as follows: binding efficiency test, spiked water. As to conditions: 0.50 g in 30.0 ml spike solution, approximately 1 mg/l of each element, 18 hrs, room temperature. As for the experimental part: Tests were run to determine the binding efficiency of eight different compounds for twenty-four different elements.
The main objective of the tests was to investigate the efficiency at which the compounds bind arsenic and selenium, in view of their use in removing those elements from drinking water. Twenty-one different anions were also included to explore further possibilities. The tests were performed as follows:
The compounds given in Table 6 were added to water and a spike and were vigorously shaken at room temperature for 18 hrs. The samples were filtered and the filtrate analyzed for a suite of elements including Sb, As, Be, Cd, Ca, Cr, Co, Cu, Fe, Pb, Mg, Mn, Mo, Ni, Se, Tl, Ti, V, Zn, Al, Ba, B, Ag, and P.
2. Add standard solutions of the elements given above to make solutions containing approximately 1 mg/l of each element.
1. Weigh 0.50 g of each compound into its own 50 ml centrifuge tube.
2. Add 30.0 ml of the spike solution to each.
3. Cap tightly and shake vigorously for 18 hrs.
4. Filter solution from each centrifuge tube through 0.2 µm syringe filter. Obtain about 6 ml of filtrate.
5. Dilute filtrates 5:10 with 2% HNO3. Final Matrix is 1% HNO3.

Series [2] can be described thus: reactivity with respect to phosphate: phosphate removal from pH 3 Na2HPO4/HCl stock solution. As to conditions: for rate of removal of phosphate compared with commercial lanthanum carbonate hydrate La2(CO3)3.H2O and La2(CO3)3.4H2O: FIGS. 17, 20, 23, pH 3; for capacity of phosphate removal (PO4 removed/g of La compound) / phosphate in solution removed: after 10 min, pH 3, La 3 times the stoichiometric amount; for Initial 1st order rate constant k1: calculated from the experimental points for the first minute of the reaction, pH 3; for Fraction of PO4 remaining after 10 min: pH 3 stock solution, La 3 times the stoichiometric amount. The format is binding. As for the experimental part: A desirable lanthanum carbonate hydroxide is LaCO3OH. […] To determine the reactivity of the lanthanum carbonate hydroxide compound with respect to phosphate, the following procedure was used. A stock solution containing 13.75 g/l of anhydrous Na2HPO4 and 8.5 g/l of HCl is prepared. The stock solution is adjusted to pH 3 by the addition of concentrated HCl. 100 ml of the stock solution is placed in a beaker with a stirring bar. A sample of lanthanum carbonate hydroxide powder is added to the solution. The amount of lanthanum carbonate hydroxide powder is such that the amount of La in suspension is 3 times the stoichiometric amount needed to react completely with the phosphate. Samples of the suspension are taken at intervals, through a filter that separated all solids from the liquid. The liquid sample is analyzed for phosphorous.
(§1) To determine the reactivity of the lanthanum compound with respect to phosphate, the following test was conducted. A stock solution containing 13.75 g/l of anhydrous Na2HPO4 and 8.5 g/l of HCl was prepared. The stock solution was adjusted to pH 3 by the addition of concentrated HCl. An amount of 100 ml of the stock solution was placed in a beaker with a stirring bar. The lanthanum oxychloride from above was added to the solution to form a suspension. The amount of lanthanum oxychloride was such that the amount of La in suspension was 3 times the stoichiometric amount needed to react completely with the phosphate. Samples of the suspension were taken at time intervals, through a filter that separated all solids from the liquid. The liquid sample was analyzed for phosphorous.
as §1, with “Lanthanum carbonate hydroxide powder made as described” for “The lanthanum oxychloride from”, “solution.” for “solution to form a suspension.”, “carbonate hydroxide powder” for “oxychloride”, “intervals” for “intervals,”
(§2) To determine the reactivity of this lanthanum compound with respect to phosphate, the following test was conducted. A stock solution containing 13.75 g/l of anhydrous Na2HPO4 and 8.5 g/l of HCl was prepared. The stock solution was adjusted to pH 3 by the addition of concentrated HCl. An amount of 100 ml of the stock solution was placed in a beaker with a stirring bar. Anhydrous lanthanum oxycarbonate made as described above, was added to the solution. The amount of anhydrous lanthanum oxycarbonate was such that the amount of La in suspension was 3 times the stoichiometric amount needed to react completely with the phosphate. Samples of the suspension were taken at intervals, through a filter that separated all solids from the liquid. The liquid sample was analyzed for phosphorous.
as §2, with “reactivity of the lanthanum compound” for “reactivity of this lanthanum compound”, “stirring bar. La2CO5 powder, made as” for “stirring bar. Anhydrous lanthanum oxycarbonate made as”, “amount of lanthanum oxycarbonate” for “amount of anhydrous lanthanum oxycarbonate”, “taken at intervals through a” for “taken at intervals, through a”

A short description of series [3]: second in vivo study in rats, urinary phosphate excretion. On the set-up: species or system Sprague-Dawley rats. The following applies: 0.3 or 0.6% of diet, average over days 2, 3, and 4. An excerpt:
Six young adult male Sprague-Dawley rats were randomly assigned to each group. Test items were lanthanum oxycarbonates La2O2CO3 and La2CO5 (compound B and compound C), each tested at 0.3 and 0.6% of diet. There was an additional negative control group receiving Sigmacell cellulose in place of the test item.
The test items were mixed thoroughly into Teklad 7012CM diet. All groups received equivalent amounts of dietary nutrients.
Rats were maintained in the animal facility for at least five days prior to use, housed individually in stainless steel hanging cages. On the first day of testing, they were placed individually in metabolic cages along with their test diet. Every 24 hours, their output of urine and feces was measured and collected and their general health visually assessed. The study continued for 4 days. Food consumption for each day of the study was recorded. Starting and ending animal weights were recorded.
Urine samples were assayed for phosphorus, calcium, and creatinine concentration in a Hitachi 912 analyzer using Roche reagents. Urinary excretion of phosphorus per day was calculated for each rat from daily urine volume and phosphorus concentration. […] Food consumption was good for all groups. […]

Series [4] can be described thus: plasma lanthanum exposure in dogs (ICP-MS). The format is in vivo, beagle dogs. The following applies: oral capsules, 2250 mg elemental lanthanum twice daily, (standard deviation). As for the experimental part: (§3) Six adult beagle dogs were dosed orally with capsules of LaCO3OH (compound A) or La2O2CO3 (compound B) in a cross-over design using a dose of 2250 mg elemental lanthanum twice daily (6 hours apart). The doses were administered 30 minutes after provision of food to the animals. At least 14 days washout was allowed between the crossover arms. Plasma was obtained pre-dose and 1.5, 3, 6, 7.5, 9, 12, 24, 36, 48, 60, and 72 hours after dosing and analyzed for lanthanum using ICP-MS. Urine was collected by catheterization before and approximately 24 hours after dosing and creatinine and phosphorus concentrations measured.

Series [5] in a line: urine phosphate excretion in dogs dosed orally with capsules. The format is in vivo, beagle dogs. As to conditions: oral capsules, 2250 mg elemental lanthanum twice daily, urine approximately 24 hours after dosing. The method, then:
as §3
The tests led to reduction of urine phosphate excretion, a marker of phosphorous binding.

The nature of series [6]: specific surface area by the BET method. The format is physicochemical. The method, then: For each sample, the surface area measured by the BET method and the fraction of phosphate remaining after 10 min of reaction have been tabulated. […] The rate constant k1 is defined by the following equation: d[PO4]/dt=−k1[PO4]
An aqueous HCl solution having a volume of 334.75 ml and containing LaCl3 (lanthanum chloride) at a concentration of 29.2 wt % as La2O3 was added to a 4 liter beaker and heated to 80° C. with stirring. The initial pH of the LaCl3 solution was 2.2. Two hundred and sixty five ml of an aqueous solution containing 63.59 g of sodium carbonate (Na2CO3) was metered into the heated beaker using a small pump at a steady flow rate for 2 hours. Using a Buchner filtering apparatus fitted with filter paper the filtrate was separated from the white powder product. The filter cake was mixed four times, each with 2 liters of distilled water and filtered to wash away the NaCl formed during the reaction. The washed filter cake was placed into a convection oven set at 105° C. for 2 hours or until a stable weight was observed. […] The surface area of the product was determined by the BET method. The test was repeated 3 times and slightly different surface areas and different reaction rates were obtained as shown in Table 1.

Turning to lanthanum oxycarbonate [Compound C], in series [1], the “% Analyte Removed As” value is 93%, the “% Analyte Removed Be” value amounted to 100%, the “% Analyte Removed Ca” value is 0% and the “% Analyte Removed Cd” value was determined as 83%. Further, in series [1], the “% Analyte Removed Co” value was determined as 52%, the “% Analyte Removed Cr” value was found to be 100%, the “% Analyte Removed Cu” value is on record as 97% and the “% Analyte Removed Fe” value worked out at 100%. Besides, in series [1], the “% Analyte Removed Mg” value is on record as 0%, the “% Analyte Removed Mn” value is 99%, the “% Analyte Removed Pb” value turned out to be 99% and the “% Analyte Removed Sb” value came to 96%. In series [2], the “rate of removal of phosphate compared with commercial lanthanum carbonate hydrate La2(CO3)3.H2O and La2(CO3)3.4H2O” value is recorded as “faster”. Besides, the Urinary phosphate excretion in series [3] was determined as 1.9 mg/day.

For the molecule `O=C([O-])[O-].[La+3].[OH-]` [A, lanthanum carbonate hydroxide], in series [4], the “Maximum concentration Cmax, plasma lanthanum” value was 2.77 (2.1) ng/mL and the “Mean (sd) Area Under the Curve0-72 h, plasma lanthanum” value is on record as 54.6 (28.0) ng-h/mL. In addition, in series [1], the “% Analyte Removed As” value worked out at 29%, the “% Analyte Removed Be” value is on record as 53%, the “% Analyte Removed Ca” value was determined as 28% and the “% Analyte Removed Cd” value amounted to 37%. In series [1], the “% Analyte Removed Co” value worked out at 29%, the “% Analyte Removed Cr” value was 100%, the “% Analyte Removed Cu” value stood at 10% and the “% Analyte Removed Fe” value worked out at 58%. In series [1], the “% Analyte Removed Mg” value is 0%, the “% Analyte Removed Mn” value turned out to be 25%, the “% Analyte Removed Pb” value amounted to 98% and the “% Analyte Removed Sb” value stood at 87%. In series [2], the “rate of removal of phosphate compared with commercial lanthanum carbonate hydrate La2(CO3)3.H2O and La2(CO3)3.4H2O” value was “faster”; the “capacity of phosphate removal (PO4 removed/g of La compound)” value stood at 110 mg PO4/g; the “phosphate in solution removed” value stood at 86%. For the same molecule, the “Median phosphorus/creatinine ratio (% reduction compared to pre-dose value)” value in series [5] came to 48.4%.

Regarding `O.O=C([O-])[O-].O=C([O-])[O-].O=C([O-])[O-].[La+3].[La+3]` [Sample 10, La2(CO3)3•1H2O, reference compound], the BET surface area in series [6] came to 2.9 m^2/g. The “rate of removal of phosphate compared with LaOCl of Example 1” value in series [2] (FIG. 14, pH 3) was “faster at the beginning but slower after about 3 minutes”. Besides, in series [2], the “Initial 1st order rate constant k1” value is 0.094 min⁻¹ and the “Fraction of PO4 remaining after 10 min” value is 0.790.

In series [6], `O=C([O-])[O-].[La+3].[OH-]` [Sample 2, LaCO3OH] gave a BET surface area of 35.9 m^2/g. Also, in series [2], the “Initial 1st order rate constant k1” value is 0.929 min⁻¹ and the “Fraction of PO4 remaining after 10 min” value is listed as 0.153.

Take `O=C([O-])[O-].[La+3].[La+3].[O-2].[O-2]` [Compound B, anhydrous lanthanum oxycarbonate]: in series [4], the “Maximum concentration Cmax, plasma lanthanum” value was 2.45 (2.2) ng/mL and the “Mean (sd) Area Under the Curve0-72 h, plasma lanthanum” value is listed as 42.7 (34.8) ng-h/mL. The “surface area of the white powder” value in series [6] (one of three repeats of Example 5) came to 26.95 m^2/gm. Also, in series [1], the “% Analyte Removed As” value is 92%, the “% Analyte Removed Be” value is on record as 100%, the “% Analyte Removed Ca” value came to 21% and the “% Analyte Removed Cd” value was determined as 85%. In series [1], the “% Analyte Removed Co” value was found to be 59%, the “% Analyte Removed Cr” value worked out at 100%, the “% Analyte Removed Cu” value is on record as 98% and the “% Analyte Removed Fe” value is on record as 100%. In series [1], the “% Analyte Removed Mg” value came to 0%, the “% Analyte Removed Mn” value is recorded as 99%, the “% Analyte Removed Pb” value is reported as 99% and the “% Analyte Removed Sb” value is 97%. Besides, in series [2], the “rate of removal of phosphate compared with commercial lanthanum carbonate hydrate La2(CO3)3.H2O and La2(CO3)3.4H2O” value is “faster”; the “capacity of phosphate removal (PO4 removed/g of La compound)” value was determined as 120 mg PO4/g; the “phosphate in solution removed” value was 73%. Besides, in series [3], the Urinary phosphate excretion stood at 2.3 mg/day. Also, the “Median phosphorus/creatinine ratio (% reduction compared to pre-dose value)” value in series [5] came out at 37.0%.
